PubChem BioAssay AID2060503 (Molecular Pharmacology Branch, DTP, NCI, 2025)

System: 817829-284-R-J1-PDC complex spheroids, viability
Assay: Anticancer human tumor 817829-284-R-J1-PDC patient-derived colon adenocarcinoma cell line growth inhibition [GQUAD]
Conditions: for IC50: curve of first compound; for viability, T/C: stronger effect = lower value
Summary of the method: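 Multi-cell-type spheroids of tumor cells with HUVEC and mesenchymal stem cells, treated with drug combinations. Concentrations descend in half-log steps from near clinical Cmax, or from 10 microM where Cmax is unknown; viability read-out.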

[1] = second compound 0.0316 µM, first compound 0.0316 µM
[2] = second compound 0.0316 µM, first compound 0.1 µM
[3] = second compound 0.0316 µM, first compound 0.316 µM
[4] = second compound 0.0316 µM, first compound 1 µM
[5] = second compound 0.0316 µM, first compound 3.16 µM
[6] = second compound 0.0316 µM, first compound 10 µM
[7] = second compound 0.1 µM, first compound 0.0316 µM
[8] = second compound 0.1 µM, first compound 0.1 µM
[9] = second compound 0.1 µM, first compound 0.316 µM
[10] = second compound 0.1 µM, first compound 1 µM
[11] = second compound 0.1 µM, first compound 3.16 µM
[12] = second compound 0.1 µM, first compound 10 µM
[13] = second compound 0.316 µM, first compound 0.0316 µM
[14] = second compound 0.316 µM, first compound 0.1 µM
[15] = second compound 0.316 µM, first compound 0.316 µM
[16] = second compound 0.316 µM, first compound 1 µM
[17] = second compound 0.316 µM, first compound 3.16 µM
[18] = second compound 0.316 µM, first compound 10 µM
[19] = second compound 1 µM, first compound 0.0316 µM
[20] = second compound 1 µM, first compound 0.1 µM
[21] = second compound 1 µM, first compound 0.316 µM
[22] = second compound 1 µM, first compound 1 µM
[23] = second compound 1 µM, first compound 3.16 µM
[24] = second compound 1 µM, first compound 10 µM
[25] = second compound 3.16 µM, first compound 0.0316 µM
[26] = second compound 3.16 µM, first compound 0.1 µM
[27] = second compound 3.16 µM, first compound 0.316 µM
[28] = second compound 3.16 µM, first compound 1 µM
[29] = second compound 3.16 µM, first compound 3.16 µM
[30] = second compound 3.16 µM, first compound 10 µM
[31] = second compound 10 µM, first compound 0.0316 µM
[32] = second compound 10 µM, first compound 0.1 µM
[33] = second compound 10 µM, first compound 0.316 µM
[34] = second compound 10 µM, first compound 1 µM
[35] = second compound 10 µM, first compound 3.16 µM
[36] = second compound 10 µM, first compound 10 µM
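Note: spheroids exposed to agents for 7 days before readout.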
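Throughout, for viability, T/C: percent viability relative to DMSO vehicle control taken as 100%.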

CC1COCCN1c1cc(C2(O)CC3CCC(C2)O3)c2cnn(-c3ccn[nH]3)c2n1 (centres undefined) + Cc1[nH]c2ccc(F)cc2c1-c1nc2c3cccnc3c3ncccc3c2[nH]1
IC50 (second compound 0.0316 µM): < 31.6 nM | IC50 (second compound 0.1 µM): < 31.6 nM | IC50 (second compound 0.316 µM): < 31.6 nM | IC50 (second compound 1 µM): < 31.6 nM | IC50 (second compound 3.16 µM): < 31.6 nM | IC50 (second compound 10 µM): < 31.6 nM | viability, T/C [1]: 40.4% | viability, T/C [2]: 9.87% | viability, T/C [3]: 7.43% | viability, T/C [4]: 5.2% | viability, T/C [5]: 5.12% | viability, T/C [6]: 3.63% | viability, T/C [7]: 32% | viability, T/C [8]: 12.5% | viability, T/C [9]: 7.69% | viability, T/C [10]: 6.04% | viability, T/C [11]: 5.1% | viability, T/C [12]: 3.62% | viability, T/C [13]: 28.5% | viability, T/C [14]: 13.2% | viability, T/C [15]: 6.99% | viability, T/C [16]: 5.84% | viability, T/C [17]: 5.13% | viability, T/C [18]: 3.71% | viability, T/C [19]: 30.4% | viability, T/C [20]: 11.7% | viability, T/C [21]: 7.32% | viability, T/C [22]: 6.4% | viability, T/C [23]: 4.91% | viability, T/C [24]: 3.49% | viability, T/C [25]: 19.1% | viability, T/C [26]: 6.27% | viability, T/C [27]: 4.26% | viability, T/C [28]: 3.69% | viability, T/C [29]: 3.38% | viability, T/C [30]: 1.97% | viability, T/C [31]: 6.89% | viability, T/C [32]: 2.8% | viability, T/C [33]: 4.24% | viability, T/C [34]: 2.85% | viability, T/C [35]: 2.85% | viability, T/C [36]: 1.69%

CC(=O)O[C@H]1C(=O)[C@@]2(C)[C@H]([C@H](OC(=O)c3ccccc3)[C@]3(O)C[C@H](OC(=O)[C@H](O)[C@@H](NC(=O)c4ccccc4)c4ccccc4)C(C)=C1C3(C)C)[C@]1(OC(C)=O)CO[C@@H]1C[C@@H]2O + CN(C)c1ccc(Nc2c3ccc(NC(=O)CCN4CCCC4)cc3nc3cc(NC(=O)CCN4CCCC4)ccc23)cc1
IC50 (second compound 0.0316 µM): < 31.6 nM | IC50 (second compound 0.1 µM): < 31.6 nM | IC50 (second compound 0.316 µM): < 31.6 nM | IC50 (second compound 1 µM): < 31.6 nM | IC50 (second compound 3.16 µM): < 31.6 nM | IC50 (second compound 10 µM): < 31.6 nM | viability, T/C [1]: 10.1% | viability, T/C [2]: 6.36% | viability, T/C [3]: 5.48% | viability, T/C [4]: 3.71% | viability, T/C [5]: 4.17% | viability, T/C [6]: 5.39% | viability, T/C [7]: 9.42% | viability, T/C [8]: 5.98% | viability, T/C [9]: 5.19% | viability, T/C [10]: 3.91% | viability, T/C [11]: 4.27% | viability, T/C [12]: 5.02% | viability, T/C [13]: 8.92% | viability, T/C [14]: 5.75% | viability, T/C [15]: 5.24% | viability, T/C [16]: 2.54% | viability, T/C [17]: 3.86% | viability, T/C [18]: 5.06% | viability, T/C [19]: 7.08% | viability, T/C [20]: 5.92% | viability, T/C [21]: 5.25% | viability, T/C [22]: 3.52% | viability, T/C [23]: 4.82% | viability, T/C [24]: 5.09% | viability, T/C [25]: 6.77% | viability, T/C [26]: 5.36% | viability, T/C [27]: 6.1% | viability, T/C [28]: 5.09% | viability, T/C [29]: 4.3% | viability, T/C [30]: 5.84% | viability, T/C [31]: 10.1% | viability, T/C [32]: 6.08% | viability, T/C [33]: 5.52% | viability, T/C [34]: 4.61% | viability, T/C [35]: 4.57% | viability, T/C [36]: 5.48%
